Measurements reported in ChEMBL document CHEMBL1201862, “PubChem BioAssay data set” (2004).
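Step 1: Grow cells in 96-well plates. Step 2: Expose to compound for 48 hours at 5 concentrations. Step 3: Interpolate endpoints linearly; if unreached, use highest concentration. GI50 marks 50% less growth.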 Activity calls are given as the source filed them. Cut-off read from the data, not from the text of the source: active = GI50 up to about 1.1 µM and inactive = higher.

Key:
Assay in all cases: NCI tumour cell line growth inhibition, 48 h
[1] = system: HCT-116
[2] = system: SF-295
[3] = system: U-251
[4] = system: TK-10
[5] = system: PC-3
[6] = system: NCI-H522
[7] = system: A498
[8] = system: MDA-MB-231
[9] = system: UACC-62
[10] = system: SNB-19
[11] = system: NCI-H23
[12] = system: SN12C
[13] = system: SF-268
[14] = system: SW-620
[15] = system: EKVX
[16] = system: SR
[17] = system: OVCAR-8
[18] = system: CAKI-1
[19] = system: MOLT-4
[20] = system: HOP-92
[21] = system: KM12
[22] = system: MDA-N
[23] = system: MDA-MB-435
[24] = system: M14
[25] = system: SK-MEL-5
[26] = system: A549
[27] = system: SK-MEL-2
[28] = system: ACHN
[29] = system: LOX IMVI
[30] = system: OVCAR-5
[31] = system: CCRF-CEM
[32] = system: IGROV-1
[33] = system: HOP-62
[34] = system: SK-MEL-28
[35] = system: SNB-75
[36] = system: UO-31
[37] = system: T47D
[38] = system: OVCAR-3
[39] = system: BT-549
[40] = system: RPMI-8226
[41] = system: UACC-257
[42] = system: NCI/ADR-RES
[43] = system: Hs-578T
[44] = system: MCF7
[45] = system: COLO 205
[46] = system: OVCAR-4
[47] = system: K562
[48] = system: DU-145
[49] = system: NCI-H226
[50] = system: HT-29
[51] = system: Malme-3M
[52] = system: SF-539
[53] = system: RXF 393
[54] = system: 786-0
[55] = system: HL-60

Measured: GI50

Cc1cn(C2CC(Br)C(COC(c3ccccc3)(c3ccccc3)c3ccccc3)O2)c(=O)[nH]c1=O (stereo not given)
inactive: [1] 8.2 µM | [2] 9.68 µM | [3] 12.3 µM | [4] 14.7 µM | [5] 5.73 µM | [6] 7.24 µM | [7] 15.3 µM | [8] 17.7 µM | [9] 12.2 µM | [10] 16.3 µM | [11] 7.4 µM | [12] 14.7 µM | [13] 13.8 µM | [14] 14.3 µM | [15] 14.5 µM | [16] 5 µM | [17] 10.9 µM | [18] 15.1 µM | [19] 8.17 µM | [20] 11.2 µM | [21] 6.71 µM | [22] 14.9 µM | [23] 14.7 µM | [24] 13.2 µM | [25] 12.7 µM | [26] 10.5 µM | [27] 14.6 µM | [28] 13.8 µM | [29] 11.9 µM | [30] 16.6 µM | [31] 4.88 µM | [32] 14.2 µM | [33] 16.9 µM | [34] 16.7 µM | [35] 11.5 µM | [36] 6.71 µM | [37] 12.3 µM | [38] 12.6 µM | [39] 12 µM | [40] 4.7 µM | [41] 16.1 µM | [42] 13.7 µM | [43] 14.6 µM | [44] 10 µM | [45] 14 µM | [46] 13 µM | [47] 7.98 µM | [48] 14.5 µM | [49] 19.2 µM | [50] 10.9 µM | [51] 17.6 µM | [52] 17.2 µM | [53] 11.2 µM | [54] 14.3 µM | [55] 4.76 µM
